According to patent publication US20240366596A1, “TREATMENT OF HFPEF IN POST-MENOPAUSAL WOMEN WITH AN SGC STIMULATOR” (Cyclerion Therapeutics, Inc., priority 2021, published 2024):
Read-outs that look alike come from different tables or passages of the source.

Legend:
[1] = tested on: subjects with symptomatic HF and an LVEF≥45%; conditions: women, spironolactone vs placebo, subjects from the Americas; cited from earlier work
[2] = tested on: women compared with men with heart failure and preserved ejection fraction; conditions: cited from earlier work
participants with HFpEF [3] = assay: CAPACITY HFpEF Phase 2 trial of praliciguat: cardiopulmonary exercise testing (CPET); assay type: in vivo, human
From the text: (§1) A Multicenter, Randomized, Double-Blind, Placebo-Controlled, Phase 2 Study Evaluating the Safety and Efficacy of Different Doses of Praliciguat (IW-1973, Compound I-1) Over 12 Weeks in Patients with Heart Failure with Preserved Ejection Fraction (CAPACITY HFpEF).
The primary objectives of this clinical study (ClinicalTrials.gov Identifier NCT03254485) were to assess the safety of oral praliciguat when administered for approximately 12 weeks to participants with HFpEF, and to evaluate the effect of oral praliciguat on peak exercise capacity (as measured by oxygen consumption [VO2]) when administered for approximately 12 weeks to participants with HFpEF, both in all participants and in participants without permanent or persistent atrial fibrillation.
The primary efficacy endpoint was the change from baseline in peak VO2 as measured by cardiopulmonary exercise testing (CPET) at Week 12 of the Treatment period. CPET was performed at baseline, at Week 8 and again at Week 12 using a highly standardized study-specific protocol. To participate in this study, each study site had to submit 2 studies to the CPET Core Laboratory at Massachusetts General Hospital core laboratory for review, and studies had to be determined to be of adequate quality before the site was deemed CPET qualified. For the 3 CPETs required by the study protocol, each study participant was to use the same form of exercise (treadmill or bicycle) and undergo the CPETs at the same time of day (+2 hours), ≥1 hour after study medication dosing. As part of the procedure, participants exercised to peak capacity beginning with unloaded exercise and continuing with a symptom-limited incremental ramp to peak VO2 with requisite respiratory exchange ratio (RER)≥1. For the baseline CPET, a participant's RER had to be ≥1.0 in order to indicate an adequate test (i.e., adequate effort on the part of the study participant, to try to mitigate stopping for non-cardiopulmonary reasons [e.g., effort-related or musculoskeletal]). Additional CPET-related study eligibility criteria included a peak VO2 of ≤80% of the predicted or age- and sex-adjusted normal level (FLETCHER G F, et al. Exercise standards. A statement for healthcare professionals from the American Heart Association. Writing Group. Circulation. 1995;91 [2]: 580-615), which served as an objective indicator of exercise intolerance characteristic of HF. For the Week 8 and End of Treatment CPETs, participants were to exercise to maximum effort, ideally to RER≥1.0. Analysis of CPET measurements for eligibility and for efficacy analyses were conducted by the independent central CPET Core Lab that was blinded to treatment allocation.
(§2) The pre-specified major secondary endpoints were the change from baseline in 6-minute walk test (6MWT) distance at Week 12, the change from baseline in ventilatory efficiency as defined by VE/VCO2 slope (minute ventilation/volume of carbon dioxide production) as obtained via CPET at Week 12, and the number of CPET responders defined as participants who improved by at least 1.5 mL O2/kg/min in peak VO2 from baseline to Week 12. In the CPET responder analysis, participants who were hospitalized or who died due to heart failure during the study Treatment Period or were missing Week 12 post-dose CPET values were considered to be non-responders.
(§3) This Phase 2, multicenter, randomized, double-blind, placebo-controlled, parallel-group study evaluated the safety and efficacy of praliciguat compared with placebo. The study randomized 196 adults with established heart failure (HF) and limited exercise capacity with an ejection fraction (EF) of at least 40% and who had at least 2 of 4 risk factors for HFpEF (diabetes/prediabetes, hypertension, obesity, and advanced age) (see Inclusion and Exclusion Criteria below).
Dosing on Days 1 to 14 (±3) was 20 mg BID (twice daily). Dosing on Day 15 (±3) onward was 40 mg QD (once daily). […]

participants with HFpEF [4] = assay: CAPACITY HFpEF Phase 2 trial of praliciguat: safety (treatment-emergent adverse events); assay type: in vivo, human
From the text: as §1
(§4) The primary safety endpoints were based on the incidence of treatment-emergent adverse events (TEAEs) and of TEAEs that were considered study drug-related by the investigator. TEAEs were defined as AEs that started or worsened in severity after administration of study drug. Medical history, prior and concomitant medications and surgeries/procedures, and adverse events (AEs) were collected throughout the study. Physical examination, vital sign measurements including orthostatic blood pressures, clinical laboratory tests, pregnancy tests, and ECGs were performed. Blood was also collected to determine pharmacokinetic (PK) parameters and plasma concentrations of praliciguat.
as §3

participants with HFpEF [5] = assay: CAPACITY HFpEF Phase 2 trial of praliciguat: 6-minute walk test (6MWT); assay type: in vivo, human
From the text: as §1, §2, §3
Screening Period: The Screening Period started with the signing of the ICF at the Screening Visit and lasted up to 45 days. At the Screening Visit, potential participants underwent screening procedures to determine their initial study eligibility. At the Baseline Visit, participants returned to the clinic for additional screening procedures to confirm their eligibility, including assessment of their CPET values, vital sign measurements, and blood and urine sample collections, and to receive urine sample collection supplies to take home. The Screening Visit could be combined with the Baseline Visit if the participant was fasted for blood and urine collections. CPET and 6MWT were to occur within 14 days before Randomization. The end of the Screening Period coincided with the beginning of the Treatment Period.

participants with HFpEF [6] = assay: CAPACITY HFpEF Phase 2 trial of praliciguat: cardiometabolic endpoints (blood pressure, HbA1c); assay type: in vivo, human; conditions: Week 12
From the text: as §1, §4
Other exploratory endpoints included assessment of echocardiographic parameters (as determined by an independent, central echocardiography core laboratory that was blinded to treatment assignment); changes from baseline to Week 12 and Follow-up visits in New York Heart Association (NYHA) functional classification (I, II, III, or IV); cardiac events (hospitalizations of CV etiology and all deaths were analyzed by the central, independent, blinded cardiac events adjudicators who determined if an event was due to heart failure or was of other CV etiology); changes from baseline to Week 12 in blood and urine biomarker levels that are relevant to HF pathophysiology; and changes from baseline to Week 12 in NT-proBNP values, urine albumin creatinine ratios (UACRs), estimated glomerular filtration rates (eGFRs), and HOMA-IR changes. Changes from baseline responses in participants' self-administered health-related quality-of-life (QOL) questionnaires were also tabulated and analyzed, including the Kansas City Cardiomyopathy Questionnaire (KCCQ), the Sheehan Disability Scale (SDS), the EuroQol (EQ) 5D-5L, and the Quick Inventory of Depressive Symptomatology Self-Report 16-item version (QIDS-SR-16).
Whereas the change from baseline relative to placebo in the general population was a reduction of 3.5 mmHg in the systolic blood pressure, this change was 7.9 mmHg reduction for the subpopulation of elderly women. Similarly, whereas the change from baseline relative to placebo in the general population was a reduction of 2.1 mmHg in the diastolic blood pressure, this change was 8.2 mmHg reduction for the subpopulation of elderly women. And also similarly, the change from baseline relative to placebo in the general population was a reduction of 0.18% points in the measurement of HbA1C, this change was 0.41% reduction from baseline relative to placebo for the subpopulation of elderly women

[7] = tested on: participants with chronic HF, an LVEF of at least 45% (i.e., HFpEF); conditions: cited from earlier work
[8] = tested on: participants with chronic HF and an ejection fraction (EF) of ≥45% (i.e., HFpEF); conditions: cited from earlier work
[9] = tested on: patients with chronic HF with HFpEF; conditions: top-line results; cited from earlier work
obese ZSF1 rats = assay: ZSF1 rat model of diabetic nephropathy with metabolic syndrome; assay type: in vivo
From the text: All data are plotted as mean±SEM. #p<0.05. ##p<0.01 vs obese control.
Aged ZSF1 rats have also been reported to develop HF consistent with HFpEF. In the ZSF1 model of diabetic nephropathy and metabolic syndrome, olinciguat was renoprotective and associated with lower circulating glucose, cholesterol, and triglycerides, all of which are relevant for this the population of post-menopausal women with HFpEF that tend to show a metabolic phenotype. Also in this model, baseline plasma NT-proBNP levels were similar in all obese ZSF1 groups [obese, group treated with enalapril (ENP), ENP+OLI10 (enalapril+oli at 10 mg/kg), and ENP+OLI30 (enalapril+oli at 30 mg/kg)]. NT-proBNP, analyzed as change from baseline to the end of treatment, increased in the obese control and ENP groups, and decreased in ENP+OLI10 and ENP+OLI30 groups (FIG. 5).

[10] = tested on: Dahl salt-sensitive rat model; assay: Dahl salt-sensitive (DSS) hypertension rat model of HFpEF; assay type: in vivo; conditions: olinciguat 10 mg/kg, FIG. 4
Protocol: All data are plotted as mean±SEM. **p<0.01. ***p<0.001 vs high-salt (HS) control.
The cardioprotective effects of olinciguat were tested in two animal models of HF: the rat post-myocardial infarction (MI) model of heart failure with reduced ejection fraction and in the Dahl salt-sensitive (DSS) hypertension model, which develops HFpEF.

[11] = tested on: normotensive and hypertensive rats; assay: Blood pressure in normotensive and hypertensive rats; assay type: in vivo, rat
[12] = 40 mg praliciguat vs placebo, Primary Analytic Population, Week 12
[13] = elderly women (older than 70), 12 weeks of treatment, CPET responder analysis
[14] = women of age > 70, week 12, 40 mg
[15] = women of age > 70, week 12, 40 mg vs placebo
[16] = pooled three highest vericiguat dose arms, 12 weeks, vs placebo

Compound: CC(=O)S[C@@H]1CC2=CC(=O)CC[C@]2(C)[C@H]2CC[C@@]3(C)[C@@H](CC[C@@]34CCC(=O)O4)[C@H]12 [spironolactone]
- all-cause mortality HR [1]: 0.66

Compound: sacubitril-valsartan
- rate ratio for sacubitril-valsartan versus valsartan, primary outcome (HF hospitalizations and cardiovascular death) ([2]; men): 1.03
- rate ratio for sacubitril-valsartan versus valsartan, primary outcome (HF hospitalizations and cardiovascular death) ([2]; women): 0.73

Compound: OC(CNc1nc(-c2cc(-c3ccon3)n(Cc3ccccc3F)n2)ncc1F)(C(F)(F)F)C(F)(F)F [praliciguat]
- placebo-adjusted LSM difference in change from baseline in peak VO2 (participants with HFpEF [3]; [12]): -0.30 mL/min/kg
- placebo-adjusted LSM difference in change in ventilation/carbon dioxide production slope (participants with HFpEF [3]; [12]): −0.3
- adjusted change from baseline in peak VO2 at Week 12 (participants with HFpEF [3]; 40 mg praliciguat, Primary Analytic Population (n=65), Week 12): -0.26 mL/min/kg
- patients with a higher than 1 mL/O2/kg/min improvement in peak VO2 (participants with HFpEF [3]; [13]): About 50%
- patients with a higher than 1.5 mL/O2/kg/min improvement in peak VO2 (participants with HFpEF [3]; [13]): 35-40%
- placebo-adjusted LSM difference in change from baseline in peak VO2 (participants with HFpEF [3]; post hoc, elderly women (70 years or older), 40 mg praliciguat (n=16) vs placebo (n=18), Week 8): 0.75 mL/min/kg
- placebo-adjusted LSM difference in change from baseline in peak VO2 (participants with HFpEF [3]; post hoc, elderly women (70 years or older), 40 mg praliciguat (n=16) vs placebo (n=18), Week 12): 1.58 mL/min/kg
- improvement in peak work load (participants with HFpEF [3]; sub-population of elderly women, week 12): about 6.5%
- worsening in peak work load (participants with HFpEF [3]; whole population): 1%
- Peak Workload LS Mean (participants with HFpEF [3]; [14]): 12.6395 Watts
- Peak Workload LS Mean Diff (participants with HFpEF [3]; [15]): 6.5195 Watts
- deaths (participants with HFpEF [4]; 40 mg praliciguat, fatal events considered not related to study drug): One death
- participants with at least one TEAE of dizziness (participants with HFpEF [4]; human, in vivo, 12 weeks): 9.9%
- participants with at least one TEAE of headache (participants with HFpEF [4]; human, in vivo, 12 weeks): 11%
- participants with at least one TEAE of hypotension (participants with HFpEF [4]; human, in vivo, 12 weeks): 8.8%
- participants with at least one serious TEAE (participants with HFpEF [4]; human, in vivo, 12 weeks): 10%
- placebo-adjusted LSM difference in change from baseline in 6MWT distance (participants with HFpEF [5]; [12]): −16.7 m
- adjusted change in 6-minute walk test (6MWT) distance (participants with HFpEF [5]; 40 mg praliciguat, Primary Analytic Population, Week 12): 41.4 m
- improvement in 6MW vs placebo (participants with HFpEF [5]; subpopulation of elderly women): 23 meters
- Six Minute Walk Test LS Mean (participants with HFpEF [5]; [14]): 73.6369
- Six Minute Walk Test LS Mean Diff (participants with HFpEF [5]; [15]): 22.7533
- reduction in HbA1C, change from baseline relative to placebo (participants with HFpEF [6]; general population): 0.18 % points
- reduction in diastolic blood pressure, change from baseline relative to placebo (participants with HFpEF [6]; general population): 2.1 mmHg
- reduction in systolic blood pressure, change from baseline relative to placebo (participants with HFpEF [6]; general population): 3.5 mmHg
- reduction in HbA1C, change from baseline relative to placebo (participants with HFpEF [6]; subpopulation of elderly women): 0.41%
- reduction in diastolic blood pressure, change from baseline relative to placebo (participants with HFpEF [6]; subpopulation of elderly women): 8.2 mmHg
- reduction in systolic blood pressure, change from baseline relative to placebo (participants with HFpEF [6]; subpopulation of elderly women): 7.9 mmHg

Compound: COC(=O)Nc1c(N)nc(-c2nn(Cc3ccccc3F)c3ncc(F)cc23)nc1N [vericiguat]
- mean change in the physical limitation score of the KCCQ ([7]; 10-mg group): 6.5 points
- mean change in the physical limitation score of the KCCQ ([7]; 15-mg group): 5.5 points
- proportion of participants achieving clinically meaningful improvements in KCCQ-clinical summary score ([8]; 10 mg vericiguat compared with placebo arm): larger proportion
- change in left atrial volume [8, 16]: NOT different from placebo
- change in log NT-proBNP [8, 16]: NOT different from placebo

Compound: OC[C@H]1O[C@@H](c2ccc(Cl)c(Cc3ccc(O[C@H]4CCOC4)cc3)c2)[C@H](O)[C@@H](O)[C@@H]1O [empagliflozin]
- risk for the composite of cardiovascular death or hospitalization for HF compared with placebo [9]: significantly reduced risk

Compound: CCOC(=O)[C@H](CCc1ccccc1)N[C@@H](C)C(=O)N1CCC[C@H]1C(=O)O [enalapril, reference compound]
- NT-proBNP, change from baseline to the end of treatment (obese ZSF1 rats; enalapril alone (ENP group), plasma, FIG. 5): increased

Compound: NC(=O)[C@](O)(CNc1nc(-c2cc(-c3ccon3)n(Cc3ccccc3F)n2)ncc1F)C(F)(F)F [olinciguat]
- circulating cholesterol (obese ZSF1 rats; rat, in vivo): lower
- circulating glucose (obese ZSF1 rats; rat, in vivo): lower
- circulating triglycerides (obese ZSF1 rats; rat, in vivo): lower
- renoprotection (obese ZSF1 rats; rat, in vivo): renoprotective
- cardioprotection (cardiac weights) [10]: cardioprotective
- lung congestion (lung weights) [10]: reduced lung congestion
- NT-proBNP levels ([10]; plasma): reduced NT-proBNP levels
- blood pressure [11]: reduced blood pressure
